# Patent US20150238614A1, “STABILISED AMORPHOUS FORM OF AGOMELATINE, A PROCESS FOR ITS PREPARATION AND PHARMACEUTICAL COMPOSITIONS CONTAINING IT” (LES LABORATOIRES SERVIER, priority 2012, published 2015)
# How the values were obtained:
# [1] = Solubility study, Crystal16 apparatus, pH 6.8 buffer, nephelometric detection; assay type: physicochemical; conditions: pH 6.8 buffer solution, aqueous buffer, thermodynamic from solid, 25° C., reference under the study conditions, read-out: Solubility of agomelatine (reference)
# Procedure: Various concentrations were tested and the presence of insoluble particles was monitored by nephelometric detection.
# [2] = Glass transition temperature by scanning calorimetric analysis (DSC); assay type: physicochemical
# Procedure: The Applicant has now discovered that agomelatine has an amorphous state whose glass transition temperature has been measured at −6° C. by scanning calorimetric analysis, or DSC (“Differential Scanning calorimetry”). Above that temperature, the active ingredient undergoes a transition towards a crystalline form. Preserving agomelatine in the amorphous state at ambient temperature is therefore not possible.
# [3] = 25° C.; cited from earlier work
smiles,measurement,setting,value
"COc1ccc2cccc(CCNC(C)=O)c2c1 [agomelatine, N-[2-(7-methoxy-1-naphthyl)ethyl]acetamide]",solubility at 4 h,[1],140 µg/mL
same,Glass transition temperature of the amorphous state,[2],−6 °C
same,Solubility of agomelatine in water,[3],less than 0.15 mg/ml
